For this data set, the system named is rat chronic carcinogenicity bioassay, TD50. Briefly: DSSTox (CPDBAS) Carcinogenic Potency Database Summary Rat Bioassay Results. The following applies: for Potency: stronger effect = lower value. A digest of the protocol:
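Chronic long-term rat cancer bioassays from literature and NCI/NTP, taking the most positive result per sex. TD50 in mmol converted to a 1–100 Activity Score from log10(1/TD50). Mixtures lacking TD50 scored 50.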

The mark [1] stands for this setting: TD50_Rat_Note: no positive results, TargetSites_Rat_Female: no positive results.
[2] abbreviates: TD50_Rat_Note: no positive results.
Where [3] appears, read: TargetSites_Rat_Female: no positive results.
[4] abbreviates: TD50_Rat_Note: TD50 is harmonic mean of more than one positive test, TargetSites_Rat_Female: stomach.

Active and inactive are the calls of the source.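 Rule for the calls: active = at least one rat sex group has a carcinogenic potency value and tumor site recorded; inconclusive = only rat studies were judged inadequate by the national testing program; inactive = no potency or tumor site, with negative rat experiments.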 *1 amine or outer side, *2 acyl side, *3 side chain or, on linkers, in order; H or OH if unused. Where a SMILES comes first, the peptide text is derived from it. Bridges are numbered along the chain shown (N, C = ends). Roman numbers before positions name the chains, in order. [ ]: non-standard residue; d: D form. Actinocin(9to1) = Cc1c2oc3c(C)ccc(C(=O)[*:1])c3nc-2c(C(=O)[*:2])c(N)c1=O; NMeV = CN[C@H](C(=O)O)C(C)C; Sar = CNCC(=O)O

For the compound `CCOC(=O)CC(SP(=S)(OC)OC)C(=O)OCC` (configuration not stated), under setting [1], the outcome was “inactive; no positive results”. For `c1ccoc1`, the Potency (TD50_Rat_Note: TD50 is harmonic mean of more than one positive test, TargetSites_Rat_Female: hematopoietic system, liver) is 0.396 mg/kg/day. Regarding `Cc1nnc2n1-c1sc(CCc3ccc(CC(C)C)cc3)cc1C(c1ccccc1Cl)=NC2C` (configuration not stated), the outcome under setting [1] is “inactive; no positive results”. As for `C1OC1C1CO1` (configuration not stated), under setting [1], the result was inactive. Take `C[N+](=O)[O-]`: under “TargetSites_Rat_Female: mammary gland”, the Potency was 40.4 mg/kg/day. With `Cc1ccc(S(=O)(=O)NC(=O)NN2CCCCCC2)cc1`, the outcome under setting [1] is “inactive; no positive results”. As for `C=CC#N`, the Potency (TD50_Rat_Note: TD50 is harmonic mean of more than one positive test, greater than ten-fold variation among TD50 values for positive res, TargetSites_Rat_Female: ear Zymbals gland, mammary gland, nasal cavity, nervous system, oral cavity, small intestine, stomach) is 16.9 mg/kg/day. As for `Nc1ccc(-c2ccccc2)cc1O`, the result under setting [1] was inactive. As to `CCNC(=S)NCC`, where the note is “TD50_Rat_Note: TD50 is harmonic mean of more than one positive test, TargetSites_Rat_Female: thyroid gland”, the Potency was 24 mg/kg/day. As for `CCOC(=O)C(O)(c1ccc(Cl)cc1)c1ccc(Cl)cc1`, under setting [1], the outcome was “inactive; no positive results”. Turning to `Nc1ccc(/C=C/c2ccc(N)cc2S(=O)(=O)O)c(S(=O)(=O)O)c1`, the outcome under setting [1] was “inactive; no positive results”. On to `CCN(C#N)N=O`, for which the Potency (TD50_Rat_Note: TD50 is harmonic mean of more than one positive test, TargetSites_Rat_Female: nasal cavity) is 3.68 mg/kg/day. For `Oc1ccc(Cl)cc1Cc1ccccc1`, under setting [1], the outcome was “inactive; no positive results”. With `Nc1c(Cl)cc(Cl)cc1Cl`, under setting [2], the outcome is “inactive; no positive results”. As for `C[N+](C)(C)CCO`, the outcome under setting [2] is “inactive; no positive results”. With `Cc1c2oc3c(C)ccc(C(=O)N[C@@H]4C(=O)N[C@H](C(C)C)C(=O)N5CCC[C@H]5C(=O)N(C)CC(=O)N(C)[C@@H](C(C)C)C(=O)O[C@@H]4C)c3nc-2c(C(=O)N[C@@H]2C(=O)N[C@H](C(C)C)C(=O)N3CCC[C@H]3C(=O)N(C)CC(=O)N(C)[C@@H](C(C)C)C(=O)O[C@@H]2C)c(N)c1=O` (I: T[dV]P[Sar][NMeV] / II: T[dV]P[Sar][NMeV]; ester I:1-I:C, II:1-II:C; linker I:N-II:N via Actinocin(9to1)), for the setting “TD50_Rat_Note: positive test results only by intraperitoneal or intravenous injection, TD50 is harmonic mean of more than one positive, TargetSites_Rat_Female: peritoneal cavity”, the Potency is 0.00111 mg/kg/day. As to `CC(O)CCl` (configuration not stated), the outcome under setting [1] is “inactive; no positive results”. On to `O=C(O)CN(CCN(CC(=O)O)CC(=O)O)CC(=O)O`, for which, under setting [1], the outcome is “inactive; no positive results”. `C[C@@H]1CCC[C@H](C)N1CCCC(O)(c1ccccc1)c1ccccn1` (some centres not stated): the outcome under setting [1] is “inactive; no positive results”. Consider `NC1=NCN([C@@H]2O[C@H](CO)[C@@H](O)[C@H]2O)C(=O)N1`, for which, under setting [2], the outcome is “inactive; no positive results”.

Regarding `Cc1c(C)c2c(c(C)c1O)CCC(C)(CCCC(C)CCCC(C)CCCC(C)C)O2` (configuration not stated), the outcome under setting [1] is “inactive; no positive results”.

Consider `O=C(O)CC[N+](=O)[O-]`, for which, under setting [1], the outcome is “inactive; no positive results”. Turning to `O=NN(CCO)C(=O)NCCCl`, the Potency (TD50_Rat_Note: TD50 is harmonic mean of more than one positive test, TargetSites_Rat_Female: kidney, liver) is 0.356 mg/kg/day. For the compound `Nc1ncn([C@@H]2O[C@H](CO)[C@@H](O)[C@H]2O)c(=O)n1`, the Potency (TD50_Rat_Note: positive test results only by intraperitoneal or intravenous injection, TargetSites_Rat_Female: NTP bioassay inadequate) is 0.17 mg/kg/day. Regarding `Clc1cccc(-c2cc(Cl)cc(Cl)c2)c1`, the Potency (TD50_Rat_Note: TD50_Rat_mmol was not calculated for this mixture, but Activiity Score is assigned value of 50 to indicate active, TargetSites_Rat_Female: liver) is 53.9 mg/kg/day. Take `CCOP(=O)=O.CCOP(=O)=O.CCOP(=O)=O.[Al+3]`: under setting [3], the Potency is 3660 mg/kg/day.

As to `CN(C)C(=S)[S][Pb][S]C(=S)N(C)C`, the outcome under setting [1] is “inactive; no positive results”. Turning to `C=CC(N)=O`, the Potency (TD50_Rat_Note: TD50 is harmonic mean of more than one positive test, TargetSites_Rat_Female: clitoral gland, mammary gland, nervous system, oral cavity, thyroid gland, uterus) is 3.75 mg/kg/day.

Turning to `FC(Cl)(Cl)Cl`, the outcome under setting [1] was “inactive; no positive results”.

Take `CC1(C)S[C@@H]2[C@H](NC(=O)COc3ccccc3)C(=O)N2[C@H]1C(=O)O`: under setting [1], the outcome was “inactive; no positive results”. Same read-out and setting: the same measure for `O.[Cd+2].[Cl-].[Cl-]`: “inactive; no positive results”. For the compound `COP(=O)(OC)C(O)C(Cl)(Cl)Cl` (configuration not stated), where the note is “TD50_Rat_Note: no positive results, TargetSites_Rat_BothSexes: no positive results”, the result was inactive. In the case of `C/C=C/c1ccc(OC)cc1`, the outcome under setting [1] was “inactive; no positive results”. Take `CC(=O)OC/C=C(C)/C=C/C=C(C)/C=C/C1=C(C)CCCC1(C)C`: the Potency (TD50_Rat_Note: TD50 is harmonic mean of more than one positive test, TargetSites_Rat_Female: adrenal gland) was 125 mg/kg/day. As for `Nc1ccc2ccccc2c1`, where the note is “TargetSites_Rat_Female: urinary bladder, TargetSites_Rat_BothSexes: no positive results”, the Potency was 61.6 mg/kg/day. Regarding `CNCCc1ccc(OC(=O)C(C)C)c(OC(=O)C(C)C)c1`, the outcome under setting [1] was “inactive; no positive results”. Turning to `O[C@@H]([C@H](O)[C@@H](O)CBr)[C@@H](O)CBr`, under “TD50_Rat_Note: positive test results only by intraperitoneal or intravenous injection, TD50 is harmonic mean of more than one positive, TargetSites_Rat_Female: mammary gland, peritoneal cavity”, the Potency is 27.6 mg/kg/day. As for `C=CCc1ccc(OC)c(OC)c1`, the Potency (TD50_Rat_Note: TD50 is harmonic mean of more than one positive test, TargetSites_Rat_Female: liver, stomach) is 19.7 mg/kg/day. Take `NCCCCCCCCCCC(=O)O`: the Potency under setting [3] was 1100 mg/kg/day.

As to `C1C2OC2C2C1C1CC2C2OC12` (configuration not stated), the outcome under setting [2] was “inactive; no positive results”. On to `COc1ccc([N+](=O)[O-])cc1N`, for which the Potency (TD50_Rat_Note: TD50 is harmonic mean of more than one positive test, TargetSites_Rat_Female: clitoral gland, skin) is 53.9 mg/kg/day. For `CCN(CC)C(=O)/C(Cl)=C(\C)OP(=O)(OC)OC`, the outcome (TD50_Rat_Note: only experiment is NCI/NTP bioassay inadequate, TargetSites_Rat_Female: NTP bioassay inadequate) is listed as “ntp bioassay inadequate”. `Cc1cccc(Nc2cc(Cl)nc(SCC(=O)O)n2)c1C`: the Potency (TD50_Rat_Note: TD50 is harmonic mean of more than one positive test, harmonic mean of TD50 includes a value for upper 99% confidence li) is 4.36 mg/kg/day.

Consider `O=NN(CC(=O)O)CC(=O)O`, for which the outcome under setting [1] was “inactive; no positive results”. As for `C=C/C1=C/[C@H](C)[C@](C)(OC(C)=O)C(=O)OCC2=CC[N+]3(C)CC[C@@H](OC1=O)C23[O-]` (some centres not stated), the Potency (TargetSites_Rat_BothSexes: liver, vascular system) is 0.5 mg/kg/day. As to `O=c1[nH]cc(F)c(=O)[nH]1`, the outcome under setting [1] is “inactive; no positive results”. Turning to `CNC(=O)O/N=C(\SC)C(=O)N(C)C`, the outcome under setting [1] was “inactive; no positive results”. As for `C/C=C/C=C/C=O`, the Potency under setting [4] is 62.2 mg/kg/day.

Take `Clc1ccccc1`: the Potency under setting [3] was 247 mg/kg/day. For `OCCN(CCO)CCO`, the outcome under setting [1] is “inactive; no positive results”. Same read-out and setting: for `CN(C)N` the value was “inactive; no positive results”. Regarding `COc1ccccc1N`, the Potency (TD50_Rat_Note: TD50 is harmonic mean of more than one positive test, TargetSites_Rat_Female: urinary bladder) is 29.7 mg/kg/day. Turning to `CC(=O)OC1CC(C)OC(C)O1` (configuration not stated), the Potency was 716 mg/kg/day. Further, the outcome under setting [1] is “inactive; no positive results”. Turning to `Nc1ccc(Cl)cc1`, under setting [1], the outcome was “inactive; no positive results”. Moreover, under setting [3], the Potency is 7.62 mg/kg/day. With `NC(=O)N(CCCO)N=O`, the Potency under setting [4] was 0.978 mg/kg/day. With `CN[C@H]1CC[C@@H](c2ccc(Cl)c(Cl)c2)c2ccccc21`, under setting [1], the result was inactive.

For the compound `CCCC(CCC)C(=O)O`, the Potency (TargetSites_Rat_Female: uterus) is 1300 mg/kg/day.

`CCCCC1(COC(=O)CCC(=O)O)C(=O)N(c2ccccc2)N(c2ccccc2)C1=O`: the outcome under setting [1] is “inactive; no positive results”. For the compound `CCN(CC)C(=S)S`, the outcome under setting [1] is “inactive; no positive results”. With `O=c1ccc(=O)[nH][nH]1`, under setting [1], the outcome is “inactive; no positive results”. For `O=NN1CCSCC1`, the Potency (TD50_Rat_Note: TD50 is harmonic mean of more than one positive test, TargetSites_Rat_Female: esophagus, oral cavity) was 5.39 mg/kg/day. `Cc1ccccc1`: where the note is “TD50_Rat_Note: TD50 is harmonic mean of more than one positive test, TargetSites_Rat_Female: Maltoni head cancers”, the Potency is 3060 mg/kg/day. Consider `CCCCCCCCCCCC[N+](C)(C)[O-]`, for which the outcome under setting [1] was “inactive; no positive results”. Same read-out and setting: the same measure for `CCC(=O)C(CC(C)N(C)C)(c1ccccc1)c1ccccc1` (configuration not stated): “inactive; no positive results”. With `Cc1cc(Cl)ccc1OCC(=O)O`, the outcome under setting [1] is “inactive; no positive results”. As for `CC(=O)Nc1ccc(O)cc1`, for the setting “TD50_Rat_Note: TD50 is harmonic mean of more than one positive test, TargetSites_Rat_Female: liver, urinary bladder”, the Potency is 495 mg/kg/day. As to `Nc1c(Br)cc(Br)c2c1C(=O)c1ccccc1C2=O`, the Potency (TD50_Rat_Note: TD50 is harmonic mean of more than one positive test, TargetSites_Rat_Female: kidney, large intestine, liver, urinary bladder) was 46 mg/kg/day. `CCN(CC)C(C)=O`: for the setting “TD50_Rat_Note: no positive results are statistically significant”, the Potency was 8.85 mg/kg/day. Take `CN(Cc1cnc2nc(N)nc(N)c2n1)c1ccc(C(=O)N[C@@H](CCC(=O)O)C(=O)O)cc1`: the outcome under setting [1] is “inactive; no positive results”. On the same count and under the same terms, the same measure for `COc1ccc(CCN2CCC(Nc3nc4ccccc4n3Cc3ccc(F)cc3)CC2)cc1`: “inactive; no positive results”. As for `CC(=O)CN(CC(O)CO)N=O` (configuration not stated), the Potency (TargetSites_Rat_Female: esophagus, oral cavity, stomach) is 0.0352 mg/kg/day. As for `O=NN1CCCCC1`, the Potency (TD50_Rat_Note: TD50 is harmonic mean of more than one positive test, TargetSites_Rat_BothSexes: esophagus, liver, nasal cavity) was 1.43 mg/kg/day. Consider `C1CCNCC1`, for which the outcome under setting [1] is “inactive; no positive results”. Still for that read-out and setting: for `C1CCC(C(CC2CCCCN2)C2CCCCC2)CC1` (configuration not stated) the value was “inactive; no positive results”.

In the case of `O=[N+]([O-])c1ccc(Oc2ccc(Cl)cc2Cl)cc1`, the Potency (TargetSites_Rat_Female: pancreas) was 420 mg/kg/day.

The values above are taken from PubChem BioAssay AID1208 (EPA DSSTox, 2008).
